The values below come from patent US20140303074A1, “Compositions and Methods For Inhibiting Immunodeficiency Virus Transcription” (The J. David Gladstone Institutes, priority 2011, published 2014).

A word on the IC50: it is the concentration at which inhibition is half-maximal.

One series deals with recombinant p300 (Homo sapiens, UniProt Q09472). Nature of the series: In vitro HAT assay (histone acetylation, 14C acetyl CoA, autoradiography). The series is classed as biochemical. Conditions: 1 μg recombinant p300, 10 μg Histone, pre-incubation 30° C. 30 min, densitometry; read-out: IC50 of inhibition of histone acetylation by p300. On the procedure: 1 μg of HAT proteins (p300, CBP, pCAF, GCN5) and 10 μg of Histone were pre-incubated with or without sodium salicylate at various doses in an appropriate buffer (50 mM Hepes, pH 8.0, 10% Glycerol, 1 mM dithiothreitol (DTT)) at 30° C. for 30 min. After the pre-incubation period, 0.05 μCi of ^14C labeled acetyl CoA was added; the mixture was incubated for 1 hour. Samples were subjected to sodium dodecyl sulfate-polyacrylamide electrophoresis (SDS-PAGE). After electrophoresis, the gels were dried. Acetylation signals were detected in the dried gels by autoradiography. Band densities were measured by Image™ software (http://rsbweb(dot)nih(dot)gov/ij/); and the relative histone acetylation was plotted.
recombinant p300, sequence (Q09472 whole entry, species assumed): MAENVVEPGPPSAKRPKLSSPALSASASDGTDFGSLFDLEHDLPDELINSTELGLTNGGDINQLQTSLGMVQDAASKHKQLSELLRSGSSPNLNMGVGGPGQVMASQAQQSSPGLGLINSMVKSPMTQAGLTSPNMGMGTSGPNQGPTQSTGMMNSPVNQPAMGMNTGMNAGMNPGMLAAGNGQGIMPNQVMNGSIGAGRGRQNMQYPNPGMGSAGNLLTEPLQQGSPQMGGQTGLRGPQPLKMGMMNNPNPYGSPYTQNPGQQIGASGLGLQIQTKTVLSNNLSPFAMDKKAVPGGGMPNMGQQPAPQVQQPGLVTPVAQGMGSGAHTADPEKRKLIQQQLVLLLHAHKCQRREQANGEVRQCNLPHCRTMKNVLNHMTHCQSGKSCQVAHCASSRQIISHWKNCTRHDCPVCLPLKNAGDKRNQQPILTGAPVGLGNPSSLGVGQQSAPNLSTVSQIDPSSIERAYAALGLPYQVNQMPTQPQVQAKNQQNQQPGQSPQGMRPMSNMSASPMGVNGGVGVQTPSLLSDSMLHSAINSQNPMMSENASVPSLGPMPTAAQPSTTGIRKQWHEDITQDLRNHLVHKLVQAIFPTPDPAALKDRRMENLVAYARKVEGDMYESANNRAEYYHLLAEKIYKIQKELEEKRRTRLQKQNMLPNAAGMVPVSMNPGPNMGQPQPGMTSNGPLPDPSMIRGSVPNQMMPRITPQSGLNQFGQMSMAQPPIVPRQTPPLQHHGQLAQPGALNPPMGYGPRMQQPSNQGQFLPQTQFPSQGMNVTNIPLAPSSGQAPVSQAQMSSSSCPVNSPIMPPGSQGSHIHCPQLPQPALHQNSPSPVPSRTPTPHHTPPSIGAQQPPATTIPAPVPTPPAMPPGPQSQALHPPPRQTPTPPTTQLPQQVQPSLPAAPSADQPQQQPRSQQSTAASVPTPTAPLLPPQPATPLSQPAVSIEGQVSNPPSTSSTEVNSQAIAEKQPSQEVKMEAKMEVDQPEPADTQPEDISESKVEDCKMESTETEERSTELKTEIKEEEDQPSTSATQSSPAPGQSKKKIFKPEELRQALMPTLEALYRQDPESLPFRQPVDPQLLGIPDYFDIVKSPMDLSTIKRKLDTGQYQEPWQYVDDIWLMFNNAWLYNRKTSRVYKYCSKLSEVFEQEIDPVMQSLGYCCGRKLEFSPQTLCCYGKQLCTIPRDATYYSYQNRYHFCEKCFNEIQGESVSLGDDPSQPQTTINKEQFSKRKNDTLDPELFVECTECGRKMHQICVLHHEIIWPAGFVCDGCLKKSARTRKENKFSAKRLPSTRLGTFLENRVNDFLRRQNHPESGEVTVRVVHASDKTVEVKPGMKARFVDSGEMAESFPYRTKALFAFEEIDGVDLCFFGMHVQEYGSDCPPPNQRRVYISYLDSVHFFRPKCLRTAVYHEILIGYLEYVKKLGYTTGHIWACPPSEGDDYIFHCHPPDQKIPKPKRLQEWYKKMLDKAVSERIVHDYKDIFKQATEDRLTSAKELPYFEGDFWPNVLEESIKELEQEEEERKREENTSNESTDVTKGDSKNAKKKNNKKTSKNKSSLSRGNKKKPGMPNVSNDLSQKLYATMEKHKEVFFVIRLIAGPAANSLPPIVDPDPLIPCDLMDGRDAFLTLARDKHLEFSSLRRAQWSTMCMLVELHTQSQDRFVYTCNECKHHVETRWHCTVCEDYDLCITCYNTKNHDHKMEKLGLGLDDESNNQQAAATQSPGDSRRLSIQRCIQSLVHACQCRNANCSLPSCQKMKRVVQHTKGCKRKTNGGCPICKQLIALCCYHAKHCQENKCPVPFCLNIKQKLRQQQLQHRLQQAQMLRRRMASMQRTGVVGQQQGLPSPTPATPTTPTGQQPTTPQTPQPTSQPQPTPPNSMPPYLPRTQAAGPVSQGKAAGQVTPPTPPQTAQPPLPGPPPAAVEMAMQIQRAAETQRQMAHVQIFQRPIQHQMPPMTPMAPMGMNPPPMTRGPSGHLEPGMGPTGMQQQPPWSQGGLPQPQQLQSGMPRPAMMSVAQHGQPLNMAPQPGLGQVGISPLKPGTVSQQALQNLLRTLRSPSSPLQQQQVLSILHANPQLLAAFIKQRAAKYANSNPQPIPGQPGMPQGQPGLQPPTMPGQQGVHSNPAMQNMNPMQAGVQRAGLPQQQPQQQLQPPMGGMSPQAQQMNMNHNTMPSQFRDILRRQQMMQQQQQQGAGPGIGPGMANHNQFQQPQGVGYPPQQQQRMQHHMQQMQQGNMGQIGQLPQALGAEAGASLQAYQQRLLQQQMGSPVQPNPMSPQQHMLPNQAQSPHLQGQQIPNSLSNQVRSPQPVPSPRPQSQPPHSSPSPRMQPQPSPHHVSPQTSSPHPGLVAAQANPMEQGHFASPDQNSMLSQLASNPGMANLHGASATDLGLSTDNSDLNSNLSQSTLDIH
1 μg of recombinant p300 and 10 μg of Histone were pre-incubated with or without diflunisal at various doses in an appropriated buffer (50 mM Hepes, pH 8.0, 10% Glycerol, 1 mM DTT) at 30° C. for 30 min. 0.05 μCi of ^14C-labeled acetylCoA was then added, and the mixture was incubated for 1 hour. Histones were separated by SDS-PAGE (FIG. 1, bottom panel). Acetylation of Histone H3 and H4 were detected by autoradiography (FIG. 1, middle panel). […] Three different experimental systems were used to test the effect of diflunisal on HIV transcription and replication.

Series [1] relates to p300- and Tat-mediated transactivation of HIV transcription. Put plainly: HIV-1 LTR luciferase reporter assay in Hela cells co-transfected with Tat and p300. Type of series: cell-based. On the procedure: An HIV-1 LTR promoter plasmid linked to a luciferase reporter plasmid, with or without the expression vector for HIV-1 Tat and p300, was transfected into cells. Cells were treated with sodium salicylate at same time of transfection. 36 hours later, the cells were lysed with passive lysis buffer (Promega), and luciferase activity was measured using a luminometer.
The effect of diflunisal on HIV transcription was tested. A plasmid containing HIV-1 driving the luciferase reporter was co-transfected into Hela cells with or without expression vectors encoding Tat and/or p300. Co-transfection of the HIV LTR with either Tat or p300 enhanced LTR activity 4 fold (FIG. 2) and 12 fold (FIG. 2) respectively. Co-expression of both Tat and p300 synergistically activated the HIV promoter 48 fold (FIG. 2). […] The IC50 for this inhibition was 80 μM.

Series [2] has as its system VSV-G envelope pseudotyped NL4-3 luciferase reporter viruses. Put plainly: microbe, parasite or virus in culture. The series is classed as cell-based, HIV.
Series [3] deals with replication-competent NL4-3/GFP virus. Put plainly: HIV replication assay (GFP positive cells by flow cytometry). Type of series: cell-based. Conditions: activated CD4 T-cells, MOI of 0.3, 50 μM, or 100 μM diflunisal, collected every 2 to 3 days. (A flow cytometer gives signals particle by particle.)
For series [4] the following is noted: cited from earlier work.
In a further series the test system is Activated CD4 T-cells. Nature of the series: Cell toxicity in the HIV replication assay (FIG. 4A). Conditions: 50 μM, or 100 μM diflunisal.

On to `O=C(O)c1cc(-c2ccc(F)cc2F)ccc1O` [Diflunisal, 2′,4′-difluoro-4-hydroxy-3-biphenylcarboxylic acid], for which the half-inhibitory concentration (IC50) on recombinant p300 is 1240 µM; in series [1] (Human immunodeficiency virus 1, HeLa, read-out: IC50 for inhibition of p300- and Tat-mediated transactivation of HIV transcription), 80 µM; in series [2] (Human immunodeficiency virus 1, NL43, T-cell, 24 h, read-out: IC50 for inhibition of HIV infection) it was 148 µM. In addition, the “Block of p300- and Tat-mediated transactivation of HIV transcription” value in series [1] (at 0.3 mM, Hela cells) is given as “completely blocked”. In series [2], the “Inhibition of HIV infection (FIG. 3)” value is reported as “inhibited HIV infection in a dose dependent manner”. Also, the “Percentage of infected cells (GFP positive cells), FIG. 4B” value in series [3] was “suppressed and delayed peak of infection in a dose dependent manner”. Further, the Plasma trough concentrations in series [4] (clinical dosage 0.5-1.0 gram per day) is 100 to 300 µM. In series [4] (in vivo), the Bioavailability is reported as 80-90%. The Half-life in series [4] (in vivo) was 8 to 12 h. For the same compound, the “Cell toxicity (FIG. 4A)” value in the series on Activated CD4 T-cells is reported as “did not show cell toxicity”.
